Data: patent publication US20230382949A1 (HEPTARES THERAPEUTICS LIMITED, priority 2020, published 2023)
Like-named read-outs stand apart in the source and are kept apart here. Starred links: 1 amine or outer side, 2 acyl side, 3 side chain; linkers in the order of their positions; H or OH if unused. Non-standard residues stand in square brackets, D forms with d. Residues, ends and D or L forms follow the SMILES beside them. *: point of attachment. Ala(piperidin-4-yl) = O=C([C@H](CC1CCN([*:3])CC1)N[*:1])[*:2]; Malonyl(2,2-Me2,histaminyl) = CC(C)(C(=O)NCCc1cnc[nH]1)C(=O)*; dNMeBip = CN[C@H](Cc1ccc(-c2ccccc2)cc1)C(=O)O; dBip = N[C@H](Cc1ccc(-c2ccccc2)cc1)C(=O)O; Oic = O=C(O)[C@@H]1C[C@@H]2CCCC[C@@H]2N1; Phe(4-Br) = N[C@@H](Cc1ccc(Br)cc1)C(=O)O; His(τ-Me) = Cn1cnc(C[C@H](N)C(=O)O)c1; X1 = CC(C)(C(=O)NCCc1ccccc1)C(=O)*; X3 = CC(C)(C(=O)NCCc1ccccn1)C(=O)*; hArg = N=C(N)NCCCC[C@H](N)C(=O)O; 3Pal = N[C@@H](Cc1cccnc1)C(=O)O; NMeQ = CN[C@@H](CCC(N)=O)C(=O)O; dCha = N[C@H](CC1CCCCC1)C(=O)O; Cba = N[C@@H](CC1CCC1)C(=O)O; Pip = O=C(O)[C@@H]1CCCCN1; Nle = CCCC[C@H](N)C(=O)O; Aib = CC(C)(N)C(=O)O

How the values were obtained:
[1] = target: T1, human Apelin receptor (Homo sapiens, UniProt P35414); assay: β-arrestin accumulation assay, functional agonism of human Apelin receptors; type: cell-based
T1 construct: host or cells: CHO-K1 cells
Description: β-arrestin assay. […] After 16 h incubation at 37° C. media was removed and cells were incubated at 37° C. for 90 min in serum free media containing increasing concentrations of test agonist. The assay reaction was stopped by adding detection reagent (DiscoveRx) and incubation for 60 min in the dark. Levels of receptor activation were then measured on a PheraStar fluorescence plate reader (BMG LabTech) and EC50 values were determined using Graphpad Prism.
T1 sequence (P32121 whole entry partner, one chain of several): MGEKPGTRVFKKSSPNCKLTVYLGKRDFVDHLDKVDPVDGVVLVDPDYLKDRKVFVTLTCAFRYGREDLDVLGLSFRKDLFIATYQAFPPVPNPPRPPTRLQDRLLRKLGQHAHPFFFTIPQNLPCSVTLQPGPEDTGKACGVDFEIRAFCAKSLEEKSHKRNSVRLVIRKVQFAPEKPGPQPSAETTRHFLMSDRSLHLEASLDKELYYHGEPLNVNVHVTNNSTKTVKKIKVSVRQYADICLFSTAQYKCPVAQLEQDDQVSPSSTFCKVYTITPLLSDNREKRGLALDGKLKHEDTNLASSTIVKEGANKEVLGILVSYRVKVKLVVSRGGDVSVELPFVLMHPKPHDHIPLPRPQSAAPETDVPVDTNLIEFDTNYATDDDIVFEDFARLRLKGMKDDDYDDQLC

[2] = target: T2, human Apelin receptor (Homo sapiens, UniProt P35414); assay: cAMP accumulation assay (HTRF), functional agonism of human Apelin receptors; type: cell-based
T2 sequence (P35414 1-380): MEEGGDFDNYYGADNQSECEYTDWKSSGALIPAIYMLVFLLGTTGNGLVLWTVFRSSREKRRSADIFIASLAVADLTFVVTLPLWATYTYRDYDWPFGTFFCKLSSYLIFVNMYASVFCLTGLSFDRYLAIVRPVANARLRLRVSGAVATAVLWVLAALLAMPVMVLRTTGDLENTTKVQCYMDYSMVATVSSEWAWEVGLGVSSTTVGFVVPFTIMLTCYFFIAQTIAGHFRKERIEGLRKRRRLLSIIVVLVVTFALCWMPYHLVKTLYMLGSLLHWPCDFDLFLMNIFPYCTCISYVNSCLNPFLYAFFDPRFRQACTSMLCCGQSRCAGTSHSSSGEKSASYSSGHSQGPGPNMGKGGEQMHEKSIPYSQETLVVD
From the text: cAMP functional assay. cAMP production was quantified using the Homogeneous Time-Resolved Fluorescence (HTRF) cAMP dynamic-2 assay (Cisbio, France).

[3] = CHO, Human Apelin agonist cAMP assay, CHO cells stably expressing the human Apelin receptor, 3 uM forskolin
[4] = pEC50, Human Apelin agonist cAMP assay, CHO cells stably expressing the human Apelin receptor, 3 uM forskolin

SMILES	EC50 [1]	Emax [2, 3]	EC50 [2, 4]	Emax ([2]; CHO, read-out: Emax)	EC50 ([2]; read-out: pEC50 (converted))	Human Apelin agonist β-arrestin assay pEC50 ([1]; CHO-K1 cells overexpressing human Apelin receptor and β-arrestin, 90 min)	Emax ([2]; Human Apelin agonist cAMP assay, CHO cells stably expressing the human Apelin receptor, 3 uM forskolin)
CC(C)C[C@H](NC(=O)[C@@H](CCCNC(=N)N)NC(=O)[C@@H]1CCCN1C(=O)[C@H](CCCCNC(=N)N)NC(=O)[C@H](CCC(N)=O)NC(=O)C(C)(C)C(=O)NCCc1ccccc1)C(=O)NC(C)(C)C(=O)N[C@@H](Cc1c[nH]cn1)C(=O)N[C@@H](CC1CCNCC1)C(=O)NCC(=O)N1[C@H](C(=O)N[C@@H](Cc2ccc(Br)cc2)C(=O)N2CCC[C@H]2C(=O)N[C@H](Cc2ccc(-c3ccccc3)cc2)C(=O)O)C[C@@H]2CCCC[C@@H]21 [Example 45] (X1-Q[hArg]P[dR]L[Aib]H[Ala(piperidin-4-yl)]G[Oic][Phe(4-Br)]P[dBip]-OH)	> 10000 nM	59%	39.8 nM				
CC(C)C[C@H](NC(=O)[C@@H](CCCNC(=N)N)NC(=O)[C@@H]1CCCN1C(=O)[C@H](CCCCNC(=N)N)NC(=O)[C@H](CCC(N)=O)N(C)C(=O)C(C)(C)C(=O)NCCc1cnc[nH]1)C(=O)NC(C)(C)C(=O)N[C@@H](Cc1c[nH]cn1)C(=O)N[C@@H](CC1CCNCC1)C(=O)NCC(=O)N1[C@H](C(=O)N[C@@H](Cc2ccc(Br)cc2)C(=O)N2CCC[C@H]2C(=O)N[C@H](Cc2ccc(-c3ccccc3)cc2)C(=O)O)C[C@@H]2CCCC[C@@H]21 [Example 58] ({Malonyl(2,2-Me2,histaminyl)}-[NMeQ][hArg]P[dR]L[Aib]H[Ala(piperidin-4-yl)]G[Oic][Phe(4-Br)]P[dBip]-OH)	> 100000 nM	33%	794 nM				
CC(C)C[C@H](NC(=O)[C@@H](CCCNC(=N)N)NC(=O)[C@@H]1CCCCN1C(=O)[C@H](CCCCNC(=N)N)NC(=O)[C@H](CCC(N)=O)NC(=O)[C@@H](CCCNC(=N)N)NC(=O)C(C)(C)C(=O)NCCc1cnc[nH]1)C(=O)NC(C)(C)C(=O)N[C@@H](Cc1cccnc1)C(=O)N[C@@H](CC1CCNCC1)C(=O)NCC(=O)N1[C@H](C(=O)N[C@@H](Cc2ccc(Br)cc2)C(=O)N2CCC[C@H]2C(=O)N[C@H](Cc2ccc(-c3ccccc3)cc2)C(=O)O)C[C@@H]2CCCC[C@@H]21 [Example 31] ({Malonyl(2,2-Me2,histaminyl)}-[dR]Q[hArg][Pip][dR]L[Aib][3Pal][Ala(piperidin-4-yl)]G[Oic][Phe(4-Br)]P[dBip]-OH)	> 10000 nM			75.4%	10 nM		
CC(C)C[C@H](NC(=O)[C@@H](CCCNC(=N)N)NC(=O)C1C2CC2CN1C(=O)[C@H](CCCCNC(=N)N)NC(=O)[C@H](CCC(N)=O)NC(=O)[C@@H](CCCNC(=N)N)NC(=O)C(C)(C)C(=O)NCCc1c[nH]cn1)C(=O)NC(C)(C)C(=O)N[C@@H](Cc1c[nH]cn1)C(=O)N[C@@H](CC1CCNCC1)C(=O)NCC(=O)N1[C@H](C(=O)N[C@@H](Cc2ccc(Br)cc2)C(=O)N2CCC[C@H]2C(=O)N[C@H](Cc2ccc(-c3ccccc3)cc2)C(=O)O)C[C@@H]2CCCC[C@@H]21 (single isomer, unassigned) [37 Isomer 2]			5.01 nM			<4	68.9
CC(C)C[C@H](NC(=O)[C@@H](CCCNC(=N)N)NC(=O)[C@@H]1CCCCN1C(=O)[C@H](CCCNC(=N)N)NC(=O)[C@H](CCC(N)=O)NC(=O)C(C)(C)C(=O)NCCc1cnc[nH]1)C(=O)NC(C)(C)C(=O)N[C@@H](Cc1c[nH]cn1)C(=O)N[C@@H](CC1CCNCC1)C(=O)NCC(=O)N1[C@H](C(=O)N[C@@H](Cc2ccc(Br)cc2)C(=O)N2CCC[C@H]2C(=O)N[C@H](Cc2ccc(-c3ccccc3)cc2)C(=O)O)C[C@@H]2CCCC[C@@H]21 [Example 55] ({Malonyl(2,2-Me2,histaminyl)}-QR[Pip][dR]L[Aib]H[Ala(piperidin-4-yl)]G[Oic][Phe(4-Br)]P[dBip]-OH)	> 10000 nM			85.9%	12.6 nM		
CCCC[C@H](NC(=O)[C@@H]1C[C@@H]2CCCC[C@@H]2N1C(=O)CNC(=O)[C@H](CC1CCNCC1)NC(=O)[C@H](Cc1ccc(Br)cc1)NC(=O)C(C)(C)NC(=O)[C@H](CC(C)C)NC(=O)[C@@H](CCCNC(=N)N)NC(=O)[C@@H]1CCCN1C(=O)[C@H](CCCCNC(=N)N)NC(=O)[C@H](CCC(N)=O)NC(=O)C(C)(C)C(=O)NCCc1cnc[nH]1)C(=O)N1CCC[C@H]1C(=O)N[C@H](Cc1ccc(-c2ccccc2)cc1)C(=O)O [Example 60] ({Malonyl(2,2-Me2,histaminyl)}-Q[hArg]P[dR]L[Aib][Phe(4-Br)][Ala(piperidin-4-yl)]G[Oic][Nle]P[dBip]-OH)	> 10000 nM			59%	50.1 nM		
CC(C)(NC(=O)[C@H](CC1CCC1)NC(=O)[C@@H](CCCNC(=N)N)NC(=O)[C@@H]1CCCN1C(=O)[C@H](CCCCNC(=N)N)NC(=O)[C@H](CCC(N)=O)NC(=O)[C@@H](CCCNC(=N)N)NC(=O)C(C)(C)C(=O)NCCc1c[nH]cn1)C(=O)N[C@@H](Cc1c[nH]cn1)C(=O)N[C@@H](CC1CCNCC1)C(=O)NCC(=O)N1[C@H](C(=O)N[C@@H](Cc2ccc(Br)cc2)C(=O)N2CCC[C@H]2C(=O)N[C@H](Cc2ccc(-c3ccccc3)cc2)C(=O)O)C[C@@H]2CCCC[C@@H]21 [Example 14] ({Malonyl(2,2-Me2,histaminyl)}-[dR]Q[hArg]P[dR][Cba][Aib]H[Ala(piperidin-4-yl)]G[Oic][Phe(4-Br)]P[dBip]-OH)	> 10000 nM	77%	7.94 nM				
CC(C)C[C@H](NC(=O)[C@H](CCCNC(=N)N)NC(=O)[C@@H]1CCCN1C(=O)[C@@H](CCCNC(=N)N)NC(=O)[C@H](CCC(N)=O)NC(=O)C(C)(C)C(=O)NCCc1cnc[nH]1)C(=O)NC(C)(C)C(=O)N[C@@H](Cc1c[nH]cn1)C(=O)N[C@@H](CC1CCNCC1)C(=O)NCC(=O)N1[C@H](C(=O)N[C@@H](Cc2ccc(Br)cc2)C(=O)N2CCC[C@H]2C(=O)N[C@H](CC2CCCCC2)C(=O)O)C[C@@H]2CCCC[C@@H]21 [Example 43] ({Malonyl(2,2-Me2,histaminyl)}-Q[dR]PRL[Aib]H[Ala(piperidin-4-yl)]G[Oic][Phe(4-Br)]P[dCha]-OH)	> 10000 nM			95.7%	100 nM		
CC(C)C[C@H](NC(=O)[C@H](CCCNC(=N)N)NC(=O)[C@@H]1CCCN1C(=O)[C@@H](CCCNC(=N)N)NC(=O)[C@H](CCC(N)=O)NC(=O)C(C)(C)C(=O)NCCc1cnc[nH]1)C(=O)NC(C)(C)C(=O)N[C@@H](Cc1cn(C)cn1)C(=O)N[C@@H](CC1CCNCC1)C(=O)NCC(=O)N1[C@H](C(=O)N[C@@H](Cc2ccc(Br)cc2)C(=O)N2CCC[C@H]2C(=O)N[C@H](Cc2ccc(-c3ccccc3)cc2)C(=O)O)C[C@@H]2CCCC[C@@H]21 [Example 49] ({Malonyl(2,2-Me2,histaminyl)}-Q[dR]PRL[Aib][His(τ-Me)][Ala(piperidin-4-yl)]G[Oic][Phe(4-Br)]P[dBip]-OH)	> 10000 nM	87.2%	7.94 nM				
CC(C)C[C@H](NC(=O)[C@@H](CCCNC(=N)N)NC(=O)[C@@H]1CCCN1C(=O)[C@H](CCCCNC(=N)N)NC(=O)[C@H](CCC(N)=O)NC(=O)C(C)(C)C(=O)NCCc1cnc[nH]1)C(=O)NC(C)(C)C(=O)N[C@@H](Cc1cnc[nH]1)C(=O)N[C@@H](CC1CCNCC1)C(=O)NCC(=O)N1[C@H](C(=O)N[C@@H](Cc2ccc(Br)cc2)C(=O)N2CCC[C@H]2C(=O)N(C)[C@H](Cc2ccc(-c3ccccc3)cc2)C(=O)O)C[C@@H]2CCCC[C@@H]21 [Example 57] ({Malonyl(2,2-Me2,histaminyl)}-Q[hArg]P[dR]L[Aib]H[Ala(piperidin-4-yl)]G[Oic][Phe(4-Br)]P[dNMeBip]-OH)	> 10000 nM	45.9%	63.1 nM				
CC(C)C[C@H](NC(=O)[C@@H](CCCNC(=N)N)NC(=O)[C@@H]1CCCN1C(=O)[C@H](CCCCNC(=N)N)NC(=O)[C@H](CCC(N)=O)NC(=O)[C@@H](CCCNC(=N)N)NC(=O)C(C)(C)C(=O)NCCc1ccccn1)C(=O)NC(C)(C)C(=O)N[C@@H](Cc1c[nH]cn1)C(=O)N[C@@H](CC1CCNCC1)C(=O)NCC(=O)N1[C@H](C(=O)N[C@@H](Cc2ccc(Br)cc2)C(=O)N2CCC[C@H]2C(=O)N[C@H](Cc2ccc(-c3ccccc3)cc2)C(=O)O)C[C@@H]2CCCC[C@@H]21 [Example 6] (X3-[dR]Q[hArg]P[dR]L[Aib]H[Ala(piperidin-4-yl)]G[Oic][Phe(4-Br)]P[dBip]-OH)	> 10000 nM	53.9%	20 nM				
